# Calls of active or inactive are those of the source. The calls are words filed in the database; no cut-off is given here.
# Target: T1, 3',5'-cyclic-AMP phosphodiesterase 4B (Homo sapiens, UniProt Q07343)
# Test: Inhibition of PDE4B expressed in HEK293 cells assessed as fold reduction in forskolin-stimulated cAMP production at 10 uM pretreated for 30 mins measured 4 hrs after forskolin challenge by luciferase reporter gene assay
# Assay type: functional, cell-based
# T1 sequence (Q07343 whole entry): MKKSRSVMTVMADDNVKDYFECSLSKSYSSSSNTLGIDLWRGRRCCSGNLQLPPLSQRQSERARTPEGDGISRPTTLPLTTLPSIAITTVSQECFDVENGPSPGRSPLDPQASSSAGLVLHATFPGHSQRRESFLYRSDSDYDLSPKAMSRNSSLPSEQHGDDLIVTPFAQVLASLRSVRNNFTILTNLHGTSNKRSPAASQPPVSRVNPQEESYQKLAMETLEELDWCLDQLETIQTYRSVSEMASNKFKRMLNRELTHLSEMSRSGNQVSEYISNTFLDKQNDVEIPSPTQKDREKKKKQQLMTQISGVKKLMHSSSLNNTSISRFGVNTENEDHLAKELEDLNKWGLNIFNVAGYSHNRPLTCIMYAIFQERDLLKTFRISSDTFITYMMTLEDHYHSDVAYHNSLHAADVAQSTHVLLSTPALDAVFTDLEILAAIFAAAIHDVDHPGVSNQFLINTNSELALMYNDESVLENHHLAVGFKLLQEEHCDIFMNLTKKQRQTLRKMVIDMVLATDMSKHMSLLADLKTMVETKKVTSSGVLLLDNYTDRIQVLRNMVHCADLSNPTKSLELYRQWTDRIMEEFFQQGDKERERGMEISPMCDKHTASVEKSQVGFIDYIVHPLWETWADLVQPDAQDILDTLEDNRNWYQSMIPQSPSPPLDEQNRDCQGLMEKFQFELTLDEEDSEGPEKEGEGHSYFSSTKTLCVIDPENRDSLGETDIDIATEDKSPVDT
row,Compound,PDE4B inhibition activity (fold reduction in cAMP)
1,N#Cc1cc2ccccc2nc1-c1c[nH]c2ccccc12,Active
2,COc1ccc2c(-c3nc4ccc(C)cc4cc3C#N)c[nH]c2c1,Active
3,Cc1ccc2nc(-c3c[nH]c4ccc(Br)cc34)c(C#N)cc2c1,Active
4,Cn1cc(-c2nc3ccccc3cc2C#N)c2ccccc21,Active
5,COc1ccc2c(-c3nc4ccccc4cc3C#N)c[nH]c2c1,Active
6,Cc1ccc2nc(-c3c[nH]c4ccc(Cl)cc34)c(C#N)cc2c1,Active
7,COc1ccc2[nH]cc(-c3nc4ccc(C)cc4cc3C#N)c2c1,Active

# Continued, values first:
row,PDE4B inhibition activity (fold reduction in cAMP),Compound
1,Active,N#Cc1cc2ccccc2nc1-c1c[nH]c2ccc(Cl)cc12
2,Active,N#Cc1cc2ccccc2nc1-c1c[nH]c2ccc(Br)cc12
3,Active,COc1ccc2[nH]cc(-c3nc4ccccc4cc3C#N)c2c1
4,Active,Cc1ccc2nc(-c3c[nH]c4ccccc34)c(C#N)cc2c1
5,Active,N#Cc1cc2ccccc2nc1-c1c[nH]c2cc(F)c(F)cc12

# Target: T1, 3',5'-cyclic-AMP phosphodiesterase 4B
# Test: Inhibition of PDE4B expressed in HEK293 cells assessed as fold reduction in forskolin-stimulated cAMP production pretreated for 30 mins measured 4 hrs after forskolin challenge by luciferase reporter gene assay
# Assay type: functional, cell-based
EC50,inhibition,Compound
0.89 µM,Dose-dependent effect,COc1ccc2c(-c3nc4ccccc4cc3C#N)c[nH]c2c1
